# Experiments:
# NIOCC 2a = experiment: Enhancement of laccase production by inducers; laccase activity in culture supernatant (ABTS); settings: for LACCASE ACTIVITY: dyes as inducers at 0.015-0.04%;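 on all read-outs here: supernatant laccase measured by 2 mM ABTS oxidation in 100 mM glycine-HCl buffer at pH 3, absorbance at 405 nm tracked over time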
# Description: The laccase activity in the culture supernatant was measured using 2 mM ABTS prepared in 100 mM glycine-HCl buffer (pH 3) at 405 nm spectrophotometrically as a function of time.
# In order to enhance the laccase production by MTCC 5159 various inducers were added to a 3 day old culture grown in B&K medium prepared in 25 ppt sea water having a pH of 7.0. The inducers such as p-anisidine, catechol, guaiacol, ferulic acid, vanillic acid, veratryl alcohol and 2,5 dimethyl aniline were used at a final concentration of 1 mM. […] The laccase activity in the culture supernatant was measured at an interval of 3 days up to 21 days as described in Example 1.
# Dyes which are generally used for decolorization were also tested for their laccase induction properties. Trypan blue, aniline blue and remazol brilliant blue R at a final concentration of 0.04%, methylene blue, crystal violet, brilliant green and congo red at 0.02% and reactive orange 176 at 0.015% final concentration were added to B & K medium prepared in 25 ppt sea water having the pH of 7.0.
# [1] = tested on: culture supernatant of NIOCC 2a; experiment: Decolorization using culture supernatant of NIOCC 2a; type: biochemical, unidentified marine fungus NIOCC #2a (MTCC 5159); settings: dyes 0.02-0.04%, 60° C., pH 6.0, supernatant concentrated two-fold
# Description: The process of decolorization of various dyes and effluents using the cell-free supernatant involves addition of filter sterilized culture supernatant of the said fungus grown in the presence of various dyes, inducers and dilute effluents. The decolorization of the effluents was monitored spectrophotometrically at appropriate wavelengths up to 12 hours. The uninoculated culture medium containing these dyes served as control.
# NIOCC 2a was grown in B&K medium prepared in sea water of 25 ppt salinity (the pH of the medium being 7.0) for 6 days. It was supplemented with 1% textile effluent B on day 6. The culture supernatant on day 12 was collected and concentrated two-fold. The concentrated enzyme was incubated with various dyes used at concentrations as given in Example 2 and the effluents were used at 10% only. The decolorization was monitored at 6 and 12 hours by incubating the samples in a water bath at 60° C. and pH 6.0 The absorbance maxima specific to that particular dye/effluent was monitored for 6 to 12 hours.
# [2] = Decolorization using exopolymeric substance produced by NIOCC 2a; parameters: species or system unidentified marine fungus NIOCC #2a (MTCC 5159); settings: 24 hours, dyes 0.015-0.04%, 10 mg EPS, 60° C., phosphate buffer pH 6
# Description: The process of decolorization of effluents using the exoploymeric substance (EPS) produced by the fungus is carried out using separated and freeze dried EPS. A known amount of EPS is incubated with appropriately diluted effluents for a period of 6 to 12 hours. The decolorization is monitored in the supernatant after centrifugation. While using the EPS, about 10 mg of EPS (dry weight) is contacted with 3 ml of effluent having the final concentration of 10%.
# The exopolymeric substance (EPS) of the fungus NIOCC 2a was prepared as follows: 1 liter of a 12 day old culture filtrate was frozen for 12 to 24 hours and allowed to thaw. The EPS precipitated on thawing and was removed by decantation. Methanol at a final concentration of 70% was added to the supernatant to further precipitate the remaining EPS from the culture supernatant. The precipitated EPS was collected by centrifugation and the pooled precipitate was lyophilized. To 10 mg of this EPS, various dyes and effluents were added at concentrations as given in example 2 and incubated at 60° C. with phosphate buffer at pH 6. […]
# fungus MTCC 5159 = experiment: Decolorization of dyes and effluents by growing fungus culture; type: cell-based, unidentified marine fungus NIOCC #2a (MTCC 5159); settings: FIG. 2a, up to day 6
# Source text: Black liquor is dark brown in color and after decolorization by the fungus MTCC 5159, it turns light brown after 6 days. Similarly molasses spent wash is dark brown and turns straw color after 6 days. Textile effluents A, originally magenta in color was comparatively difficult to decolorize whereas Textile effluent B, originally bottle green in color was comparatively easy to decolorize to a light green color after 6 days. The process for the decolorization of various effluents utilizing the fungal biomass involves addition of sterilized, appropriately diluted effluents to a 6 day-old culture of NIOCC 2a growing in B&K medium. The degradation of effluents and various dyes is monitored spectrophotometrically by removing an aliquot of sample from these cultures and measuring changes in absorbance at appropriate wavelengths. The decolorization is measured every alternate day up to 6 days. […]
# The fungus MTCC 5159 was tested for its ability to decolorize various dyes and effluents by monitoring the change in its specific absorbance maxima every alternate day over a period of 6 days after the dye/effluents were added. […] The extent of decolorization was recorded as residual color (in percentage). […] Effluents like textile effluent A, B, MSW and black liquor were also monitored at their absorbance maxima in B&K medium, at 505, 663, 663 and 317 nm respectively.
Molecule,"comparison of inducers of laccase production, in words (NIOCC 2a)",PERCENT DECOLORIZATION ([1]; 6 hours) [%],PERCENT DECOLORIZATION ([1]; 12 hours) [%],PERCENT DECOLORIZATION ([2]; listed as Congo red) [%],PERCENT DECOLORIZATION ([2]; listed as congo red),LACCASE ACTIVITY (NIOCC 2a; day 3) [UL^−1],LACCASE ACTIVITY (NIOCC 2a; day 6) [UL^−1],LACCASE ACTIVITY (NIOCC 2a; day 8) [UL^−1],LACCASE ACTIVITY (NIOCC 2a; day 10) [UL^−1],LACCASE ACTIVITY (NIOCC 2a; day 12) [UL^−1],LACCASE ACTIVITY (NIOCC 2a; day 14) [UL^−1],LACCASE ACTIVITY (NIOCC 2a; day 16) [UL^−1],LACCASE ACTIVITY (NIOCC 2a; day 18) [UL^−1],PERCENT DECOLORIZATION [2] [%],"comparison of dye degradation by the fungus culture, in words (fungus MTCC 5159)"
O=S(=O)([O-])[O-].[Cu+2] [Copper sulphate],best inducer,,,,,,,,,,,,,,
"CN(C)c1ccc2nc3ccc(=[N+](C)C)cc-3sc2c1 [Methylene Blue, methylene blue]",,3,5,,,,,,,,,,,,
"Nc1c(/N=N/c2ccc(-c3ccc(/N=N/c4cc(S(=O)(=O)O)c5ccccc5c4N)cc3)cc2)cc(S(=O)(=O)O)c2ccccc12 [Congo Red, congo red]",,54,47,29,not decolorized to these extents,,,,,,,,,,
"Nc1c(S(=O)(=O)[O-])cc(Nc2cccc(S(=O)(=O)CCOS(=O)(=O)[O-])c2)c2c1C(=O)c1ccccc1C2=O.[Na+].[Na+] [RBBR, remazol brilliant blue R]",,67,46,,,3,43,0,0,0,0,0,0,100,
Reactive orange 176 [RO 176],,,,,,21,8,335,949,904,1158,1108,1180,100,least degraded
"Cc1cc(-c2ccc(/N=N/c3c(S(=O)(=O)O)cc4cc(S(=O)(=O)O)cc(N)c4c3O)c(C)c2)ccc1/N=N/c1c(S(=O)(=O)O)cc2cc(S(=O)(=O)O)cc(N)c2c1O [Trypan Blue, Trypan blue]",,22,25,,,,,,,,,,,79,
"CN(C)c1ccc(C(=C2C=CC(=[N+](C)C)C=C2)c2ccc(N(C)C)cc2)cc1 [Crystal Violet, crystal violet]",,44,54,,,,,,,,,,,80,
aniline blue,,55,40,,,12,67,21,825,1051,1166,1211,1048,75,
